Like-named read-outs stand apart in the source and are kept apart here. Marks after values point to notes of the source that are not given here.
Key:
[1] = tested on: engraftment arrhythmia (EA); settings: for Result: HR effect / Result: response on EA burden / Result: cardioversion: Table 1, swine; for Effect: HR effect / Effect: response on EA burden / Effect: cardioversion: Table 2, Phase 1; for effect on heart rate (agent alone) / effect on rhythm: cardioversion / sinus rhythm / arrhythmia burden (agent alone): running text and figure legend, pigs in EA
Protocol: A number of anti-arrhythmic therapies were tested to determine their efficacy in treating and preventing engraftment arrhythmias.
The objective of this study was to identify a pharmacological regimen to attenuate arrhythmias following cardiac remuscularization therapy. This study was designed in two phases: the first, to observe the natural history of EA and screen various antiarrhythmic agents for efficacy and the second, test for efficacy (FIG. 16). All subjects were 30-40 kg castrated male Yucatan minipigs between 6-13 months of age (S&S Farms). In Phase 1, nine subjects underwent cardiac remuscularization therapy with 500×10^6 hESC-CM delivered by direct surgical transepicardial injections or later, by percutaneous transendocardial injections. The first four subjects (one non-infarcted and three infarcted) were followed to learn the natural history of EA and establish clinical endpoints and parameters for the Phase 2 drug trial. The subsequent five subjects underwent systematic dosing with antiarrhythmic agents with continuous electrocardiography (ECG) monitoring to determine effect on rhythm and rate (Table 2).
In addition, the funny current/HCN4 channel antagonist, ivabradine, was tested (Tables 1 and 2). This series was not meant to be definitive but rather to rapidly identify candidate agents. Animals were brought into the laboratory while in EA, anesthetized, and the effects of short-term intravenous infusion of anti-arrhythmic agents were studied.
Subjects were administered multiple trials antiarrhythmics and observed for acute response by continuous ECG monitoring. Intravenous agents were delivered as a bolus dose over 2 minutes. Oral agents were administrated by direct observation in a minimum of apples, apple sauce or pumpkin puree with daily feeding and dosed daily for dose escalation. A washout period of at least three days was provided between agents. Amiodarone was administered as the last agent for testing given concern for prolonged half-life and elimination kinetics. All agents were tested in at least two subjects.

[2] = tested on: engraftment arrhythmia (EA); test: Antiarrhythmic trial in non-human primate engraftment model; assay type: in vivo; settings: Table 1, concentration not given
[3] = Amiodarone drug monitoring by liquid chromatography-mass spectrometry after discontinuation of oral therapy; assay type: in vivo, pigs; settings: within 1 week of discontinuation of chronic oral amiodarone; pig
Protocol: Amiodarone levels were measured in plasma by a liquid chromatography-mass spectrometry assay. Chronic oral amiodarone in six pigs was discontinued after achieving electrical maturation and stabilization of engraftment arrythmia. Serum concentrations of amiodarone were assayed weekly, including 3-4 weeks after discontinuation.
A novel liquid chromatography—mass spectrometry assay was established for amiodarone to monitor steady state serum levels in the porcine model and guide oral dosing to ensure efficacy and avoid dose-related toxicity. A target serum level of 1.5-4.0 μg/ml was extrapolated from prior human pharmacokinetic studies (16,17). Elimination kinetics after discontinuation of oral amiodarone therapy were also studied by obtaining weekly trough concentrations in 6 pigs (subjects 6, 7, 8, 13, 14, 16) (FIG. 18).

| Structure (SMILES) | effect in the antiarrhythmic screen (heart rate or arrhythmia burden) [1] | Result: HR effect [1] | Result: response on EA burden [1] | Effect: HR effect ([1]; pig) | Effect: response on EA burden ([1]; pig) | other results |
| --- | --- | --- | --- | --- | --- | --- |
| COCCc1ccc(OCC(O)CNC(C)C)cc1 (centres unmarked) [Metoprolol] | no significant effect | Moderate HR effect (IV only) | no | Moderate HR effect (IV only) | no | – |
| O=C1CN(/N=C/c2ccc(-c3ccc([N+](=O)[O-])cc3)o2)C(O)=N1 [Dantrolene] | – | No response on HR or EA burden | No response on HR or EA burden | – | – | – |
| CCCNCC(O)COc1ccccc1C(=O)CCc1ccccc1 (centres unmarked) [Propafenone] | – | – | – | – | – | Effect: adverse events (footnotes * and **) ([1]; pig, in vivo): *Severe nausea/emesis observed at therapeutic doses, limiting clinical utility; Result: adverse events (* remarks) ([1]; pig, in vivo): * Dose limited emesis |
| COc1ccc(CCN(C)CCCC(C#N)(c2ccc(OC)c(OC)c2)C(C)C)cc1OC (centres unmarked) [Verapamil] | – | – | – | – | – | Result [2]: Sudden cardiac death |
| COc1cc2c(cc1OC)CC(=O)N(CCCN(C)C[C@H]1Cc3cc(OC)c(OC)cc31)CC2 [Ivabradine] | – | Robust dose-dependent HR | – | Robust dose-dependent HR effect (PO | only)**, no response on EA burden | Effect: adverse events (footnotes * and **) ([1]; pig, in vivo): **Severe bradycardia; effect on heart rate (agent alone) ([1]; listed as ivabradine): robust dose-dependent effects on heart rate; effect on rhythm: cardioversion / sinus rhythm / arrhythmia burden (agent alone) ([1]; listed as ivabradine): did not restore sinus rhythm |
| CCN(CC)CC(=O)Nc1c(C)cccc1C [Lidocaine] | no significant effect | Modest HR effect | – | Modest HR effect | – | Result: cardioversion [1]: rare; Effect: cardioversion ([1]; pig): rare |
| CC(C)NCC(O)c1ccc(NS(C)(=O)=O)cc1 (centres unmarked) [Sotalol] | no significant effect | No response on HR or EA burden | No response on HR or EA burden | No response on HR or EA burden | No response on HR or EA burden | – |
| CCCCc1oc2ccccc2c1C(=O)c1cc(I)c(OCCN(CC)CC)c(I)c1 [Amiodarone] | – | Modest HR effect | – | Modest HR effect | – | Result: cardioversion [1]: frequent; Effect: cardioversion ([1]; pig): frequent; effect on heart rate (agent alone) [1]: moderate effect on reducing heart rate; effect on rhythm: cardioversion / sinus rhythm / arrhythmia burden (agent alone) [1]: effective as an intravenous bolus to cardiovert; Average serum amiodarone [3]: 0.42 ± 0.12 µg/mL |
| O=C(NCC1CCCCN1)c1cc(OCC(F)(F)F)ccc1OCC(F)(F)F (centres unmarked) [Flecainide] | no significant effect | No response on HR or EA burden | No response on HR or EA burden | No response on HR or EA burden | No response on HR or EA burden | – |
